In patent US20250243171A1, “QUINAZOLINE COMPOUNDS FOR TREATMENT OF DISEASE” (Arthrosi Therapeutics, Inc., priority 2021, published 2025) one finds EC50 data, which are given here for 16 compounds.

Assay in all cases: EC50 assay: Ba/F3 stable cell proliferation (CCK-8, 72 h)
Holding throughout (type): cell-based

In assay [1] the target is T1, Ba/F3 stable cells (Homo sapiens, UniProt P00533, DUP771-773, cells depend on it).
T1 construct: EC50 Ba/F3-EGFR H773-V774insNPH; other: Ba/F3-EGFR H773-V774insNPH cells, 72 h, CCK-8
T1 sequence (P00533 with tags, fused parts or gaps DUP771-773): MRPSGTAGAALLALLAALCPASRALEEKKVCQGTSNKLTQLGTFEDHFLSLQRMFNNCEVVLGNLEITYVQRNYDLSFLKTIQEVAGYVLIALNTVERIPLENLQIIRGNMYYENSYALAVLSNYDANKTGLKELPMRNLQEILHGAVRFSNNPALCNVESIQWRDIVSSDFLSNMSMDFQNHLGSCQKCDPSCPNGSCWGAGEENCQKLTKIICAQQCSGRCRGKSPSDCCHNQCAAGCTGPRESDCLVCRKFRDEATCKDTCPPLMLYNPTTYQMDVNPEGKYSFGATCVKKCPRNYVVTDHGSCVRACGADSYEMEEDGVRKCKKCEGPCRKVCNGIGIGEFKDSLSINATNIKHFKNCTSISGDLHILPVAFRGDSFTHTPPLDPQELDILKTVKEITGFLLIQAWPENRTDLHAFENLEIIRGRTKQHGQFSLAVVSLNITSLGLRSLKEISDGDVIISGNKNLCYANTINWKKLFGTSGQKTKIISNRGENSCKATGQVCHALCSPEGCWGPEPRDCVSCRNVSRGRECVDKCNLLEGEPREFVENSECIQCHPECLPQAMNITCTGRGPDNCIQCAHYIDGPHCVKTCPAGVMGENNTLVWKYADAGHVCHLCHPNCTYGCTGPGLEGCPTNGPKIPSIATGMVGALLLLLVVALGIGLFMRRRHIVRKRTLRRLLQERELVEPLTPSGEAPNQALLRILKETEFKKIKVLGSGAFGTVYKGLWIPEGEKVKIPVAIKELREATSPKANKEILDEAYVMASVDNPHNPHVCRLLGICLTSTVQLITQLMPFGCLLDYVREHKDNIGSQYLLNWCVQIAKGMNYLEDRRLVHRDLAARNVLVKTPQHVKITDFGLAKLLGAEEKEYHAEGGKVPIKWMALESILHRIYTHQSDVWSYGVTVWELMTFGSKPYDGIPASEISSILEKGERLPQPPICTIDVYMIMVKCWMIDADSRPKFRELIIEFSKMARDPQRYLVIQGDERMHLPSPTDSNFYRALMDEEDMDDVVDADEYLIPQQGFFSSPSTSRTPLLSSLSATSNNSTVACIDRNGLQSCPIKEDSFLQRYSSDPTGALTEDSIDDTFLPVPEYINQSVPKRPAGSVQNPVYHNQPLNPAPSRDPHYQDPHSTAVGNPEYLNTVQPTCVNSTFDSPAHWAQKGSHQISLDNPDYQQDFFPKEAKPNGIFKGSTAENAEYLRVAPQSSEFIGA
To be noted: Ba/F3-EGFR H773-V774insNPH cells. As to the method:
(§1) 4,000 Ba/F3 stable cells/90 μL/well were plated onto 96-well cell culture plate (Grenier, Cat.No. 655180) and incubated at 37° C. with a humidified atmosphere of 5% CO2 for 2 h. Then the cells were treated with 10 μL compounds at serial titration. The final DMSO concentration is 0.1%. The cells treated with 0.1% DMSO (Vetec, Cat.No.V900090) as a positive control (Max), and medium with 0.1% DMSO was as a negative control (Min). Incubated the cells at 37° C. for 72 h. 10 μL the cell proliferation reagent CCK-8 (Dojindo, Cat.No. CK04 1000T) was added into each well and incubated the plate at 37° C. for 4 hours, the GD value was measured by SPECTRAmax plus (Molecular Devices) at 450 nm. Data processing with Graphpad 7.0.

Assay [2] addresses T2, Ba/F3 stable cells (Homo sapiens, UniProt P00533, DUP767-769, cells depend on it).
T2 construct: EC50 Ba/F3-EGFR V769-D770insASV; other: Ba/F3-EGFR V769-D770insASV cells, 72 h, CCK-8
To be noted: Ba/F3-EGFR V769-D770insASV cells. Here is the method:
as §1

For assay [3], the target named is T3, Ba/F3 stable cells (Homo sapiens, UniProt P04626, DUP772-775, cells depend on it).
T3 construct: EC50 Ba/F3-HER2 A775-G776insYVMA; other: Ba/F3-HER2 A775-G776insYVMA cells, 72 h, CCK-8
Conditions: Ba/F3-HER2 A775-G776insYVMA cells. Here is the method: as §1

In assay [4] the target is T4, Ba/F3 stable cells (Homo sapiens, UniProt P00533, DUP768-770, cells depend on it).
T4 construct: EC50 Ba/F3-EGFR D770-N771insSVD; other: Ba/F3-EGFR D770-N771insSVD cells, 72 h, CCK-8
Conditions: Ba/F3-EGFR D770-N771insSVD cells. As to the method:
as §1

The target of assay [5] is T5, Ba/F3 stable cells (Homo sapiens, UniProt P00533, INS763FQEA, cells depend on it).
T5 construct: EC50 Ba/F3-EGFR A763-Y764insFQEA; other: Ba/F3-EGFR A763-Y764insFQEA cells, 72 h, CCK-8
T5 sequence (P00533 with tags, fused parts or gaps INS763FQEA): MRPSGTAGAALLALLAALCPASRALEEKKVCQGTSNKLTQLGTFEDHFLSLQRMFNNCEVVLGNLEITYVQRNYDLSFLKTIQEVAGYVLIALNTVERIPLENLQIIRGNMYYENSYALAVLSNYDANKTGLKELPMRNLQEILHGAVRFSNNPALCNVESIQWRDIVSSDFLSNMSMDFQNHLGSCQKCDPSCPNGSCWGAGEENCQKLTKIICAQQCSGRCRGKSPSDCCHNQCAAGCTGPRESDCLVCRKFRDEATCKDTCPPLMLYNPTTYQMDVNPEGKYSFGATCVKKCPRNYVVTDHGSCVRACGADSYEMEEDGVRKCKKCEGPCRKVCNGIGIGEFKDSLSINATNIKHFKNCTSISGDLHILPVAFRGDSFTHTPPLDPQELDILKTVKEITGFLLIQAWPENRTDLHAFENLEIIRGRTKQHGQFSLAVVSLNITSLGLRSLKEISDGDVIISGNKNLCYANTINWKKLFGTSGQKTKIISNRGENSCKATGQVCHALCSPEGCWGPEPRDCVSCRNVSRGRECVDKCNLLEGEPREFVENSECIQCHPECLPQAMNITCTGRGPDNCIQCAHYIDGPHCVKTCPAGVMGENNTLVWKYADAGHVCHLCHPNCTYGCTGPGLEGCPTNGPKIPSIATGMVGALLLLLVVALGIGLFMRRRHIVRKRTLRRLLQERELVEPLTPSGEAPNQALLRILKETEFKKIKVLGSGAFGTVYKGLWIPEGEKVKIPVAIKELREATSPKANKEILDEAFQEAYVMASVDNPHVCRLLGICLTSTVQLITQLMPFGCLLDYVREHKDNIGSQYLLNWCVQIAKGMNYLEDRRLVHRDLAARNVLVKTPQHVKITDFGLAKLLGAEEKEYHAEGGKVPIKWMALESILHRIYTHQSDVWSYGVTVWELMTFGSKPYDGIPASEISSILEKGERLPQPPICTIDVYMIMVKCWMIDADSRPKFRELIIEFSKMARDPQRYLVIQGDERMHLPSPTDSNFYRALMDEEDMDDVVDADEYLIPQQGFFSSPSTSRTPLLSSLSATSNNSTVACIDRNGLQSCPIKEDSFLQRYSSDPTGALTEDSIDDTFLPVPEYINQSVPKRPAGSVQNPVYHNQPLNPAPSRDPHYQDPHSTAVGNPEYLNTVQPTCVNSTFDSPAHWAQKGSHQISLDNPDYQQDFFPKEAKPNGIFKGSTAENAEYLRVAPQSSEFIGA
To be noted: Ba/F3-EGFR A763-Y764insFQEA cells. Here is the method: as §1

Assay [6] addresses T6, Ba/F3 stable cells (Homo sapiens, UniProt P00533, T790M/L858R, cells depend on it).
T6 construct: EC50 Ba/F3-EGFR L858R-T790M; other: Ba/F3-EGFR L858R-T790M cells, 72 h, CCK-8
To be noted: Ba/F3-EGFR L858R-T790M cells. As to the method: as §1

T2 sequence (P00533 with tags, fused parts or gaps DUP767-769): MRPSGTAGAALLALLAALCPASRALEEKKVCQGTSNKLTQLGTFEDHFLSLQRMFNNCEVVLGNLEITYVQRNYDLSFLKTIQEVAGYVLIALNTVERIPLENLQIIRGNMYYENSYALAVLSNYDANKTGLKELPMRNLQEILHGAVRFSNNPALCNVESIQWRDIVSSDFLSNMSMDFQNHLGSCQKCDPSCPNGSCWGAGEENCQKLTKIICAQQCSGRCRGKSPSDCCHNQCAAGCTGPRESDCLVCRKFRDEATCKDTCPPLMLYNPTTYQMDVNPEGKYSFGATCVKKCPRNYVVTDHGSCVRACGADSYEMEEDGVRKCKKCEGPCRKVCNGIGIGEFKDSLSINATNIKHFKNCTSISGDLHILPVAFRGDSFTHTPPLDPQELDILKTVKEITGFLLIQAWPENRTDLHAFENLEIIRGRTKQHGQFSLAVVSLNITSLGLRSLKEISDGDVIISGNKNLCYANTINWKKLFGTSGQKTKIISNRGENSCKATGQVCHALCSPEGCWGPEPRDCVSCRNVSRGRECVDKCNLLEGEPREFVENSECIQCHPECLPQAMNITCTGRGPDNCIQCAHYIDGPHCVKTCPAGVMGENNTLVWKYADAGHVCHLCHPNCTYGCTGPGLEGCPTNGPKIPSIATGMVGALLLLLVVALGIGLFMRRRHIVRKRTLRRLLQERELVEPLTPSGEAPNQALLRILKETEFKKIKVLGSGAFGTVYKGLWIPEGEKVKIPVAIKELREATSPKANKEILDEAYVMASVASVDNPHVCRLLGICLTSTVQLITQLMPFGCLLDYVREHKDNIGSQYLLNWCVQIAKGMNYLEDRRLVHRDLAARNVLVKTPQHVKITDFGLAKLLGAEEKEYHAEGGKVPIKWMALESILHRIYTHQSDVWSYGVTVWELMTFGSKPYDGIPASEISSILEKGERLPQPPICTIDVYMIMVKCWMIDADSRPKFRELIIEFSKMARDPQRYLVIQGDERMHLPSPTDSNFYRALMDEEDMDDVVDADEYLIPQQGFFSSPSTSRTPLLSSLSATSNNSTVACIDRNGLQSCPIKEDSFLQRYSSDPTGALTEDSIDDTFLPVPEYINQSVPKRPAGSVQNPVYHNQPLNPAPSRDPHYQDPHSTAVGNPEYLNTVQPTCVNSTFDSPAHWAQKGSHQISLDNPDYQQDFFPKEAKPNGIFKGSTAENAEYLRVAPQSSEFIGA
T6 sequence (P00533 whole entry T790M/L858R): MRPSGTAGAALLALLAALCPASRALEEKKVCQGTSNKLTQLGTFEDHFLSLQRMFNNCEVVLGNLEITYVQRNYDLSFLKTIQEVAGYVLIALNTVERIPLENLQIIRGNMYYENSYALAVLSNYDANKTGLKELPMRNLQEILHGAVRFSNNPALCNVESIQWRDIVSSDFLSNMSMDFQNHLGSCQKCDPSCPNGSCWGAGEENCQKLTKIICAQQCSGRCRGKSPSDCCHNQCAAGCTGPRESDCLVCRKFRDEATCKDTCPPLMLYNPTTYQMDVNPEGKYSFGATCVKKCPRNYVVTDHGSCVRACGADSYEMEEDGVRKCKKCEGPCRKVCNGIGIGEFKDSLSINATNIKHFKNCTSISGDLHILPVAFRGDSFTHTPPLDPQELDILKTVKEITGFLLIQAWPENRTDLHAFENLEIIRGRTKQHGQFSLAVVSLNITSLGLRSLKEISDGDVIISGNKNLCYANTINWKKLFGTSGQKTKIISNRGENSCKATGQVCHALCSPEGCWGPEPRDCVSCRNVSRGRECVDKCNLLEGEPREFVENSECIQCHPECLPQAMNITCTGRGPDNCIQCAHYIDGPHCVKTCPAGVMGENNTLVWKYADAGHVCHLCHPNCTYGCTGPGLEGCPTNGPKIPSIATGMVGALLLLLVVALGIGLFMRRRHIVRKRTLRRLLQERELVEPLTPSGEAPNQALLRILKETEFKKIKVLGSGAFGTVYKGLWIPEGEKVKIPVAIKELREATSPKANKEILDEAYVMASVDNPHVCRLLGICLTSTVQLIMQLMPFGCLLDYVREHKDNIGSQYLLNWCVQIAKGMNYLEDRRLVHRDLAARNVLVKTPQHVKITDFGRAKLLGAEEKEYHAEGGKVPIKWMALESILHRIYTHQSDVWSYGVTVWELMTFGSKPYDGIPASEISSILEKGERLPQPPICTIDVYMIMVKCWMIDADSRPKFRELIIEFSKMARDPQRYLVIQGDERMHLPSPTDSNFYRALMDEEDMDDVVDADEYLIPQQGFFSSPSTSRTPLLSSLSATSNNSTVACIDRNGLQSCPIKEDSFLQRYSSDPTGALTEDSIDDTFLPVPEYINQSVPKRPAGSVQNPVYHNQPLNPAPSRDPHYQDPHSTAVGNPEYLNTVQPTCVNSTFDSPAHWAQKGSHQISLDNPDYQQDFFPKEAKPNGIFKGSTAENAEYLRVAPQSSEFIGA

As to `C=CC(=O)N1CC(c2cc3c(NCc4cccc(Cl)c4)ncnc3cc2OC)C1` [Compound 15, 1-(3-(4-((3-chlorobenzyl)amino)-7-methoxyquinazolin-6-yl)azetidin-1-yl)prop-2-en-1-one], the EC50 is 0.2 to 1 µM in assay [1]; at most 0.2 µM in assay [2]; over 1 µM in assay [3]; 0.2 to 1 µM in assay [4]; at most 0.2 µM in assay [5]; 0.2 to 1 µM in assay [6].

Turning to `C=CC(=O)N1CC(c2cc3c(Nc4ccc(F)c(Cl)c4F)ncnc3cc2OC)C1` [Compound 16, 1-(3-(4-((3-chloro-2,4-difluorophenyl)amino)-7-methoxyquinazolin-6-yl)azetidin-1-yl)prop-2-en-1-one], the EC50 in assay [1], in assay [2], in assay [3], in assay [4], in assay [5] and in assay [6] was at most 0.2 µM throughout.

Turning to `C=CC(=O)N1CC(c2cc3c(Nc4ccc(Cl)c(Cl)c4F)ncnc3cc2OCCOC)C1` [Compound 17, 1-(3-(4-((3,4-dichloro-2-fluorophenyl)amino)-7-(2-methoxyethoxy)quinazolin-6-yl)azetidin-1-yl)prop-2-en-1-one], the EC50 in assay [1], in assay [2], in assay [3], in assay [4], in assay [5] and in assay [6] was at most 0.2 µM in each case.

On to `C=CC(=O)N1CC(c2cc3c(Nc4ccc(Cl)c(Cl)c4F)ncnc3cc2OCC)C1` [Compound 18, 1-(3-(4-((3,4-dichloro-2-fluorophenyl)amino)-7-ethoxyquinazolin-6-yl)azetidin-1-yl)prop-2-en-1-one], for which the EC50 in assay [1], in assay [2], in assay [3], in assay [4], in assay [5] and in assay [6] was at most 0.2 µM each time.

On to `C=CC(=O)N1CC(c2cc3c(Nc4ccc(Cl)c(Cl)c4F)ncnc3cc2OCCO)C1` [Compound 19, 1-(3-(4-((3,4-dichloro-2-fluorophenyl)amino)-7-(2-hydroxyethoxy)quinazolin-6-yl)azetidin-1-yl)prop-2-en-1-one], for which the EC50 in assay [1], in assay [2], in assay [3], in assay [4], in assay [5] and in assay [6] was at most 0.2 µM each time.

In the case of `C=CC(=O)N1CC(c2cc3c(Nc4ccc(Cl)c(Cl)c4F)ncnc3cc2OCCN2CCN(C)CC2)C1` [Compound 21, 1-(3-(4-((3,4-dichloro-2-fluorophenyl)amino)-7-(2-(4-methylpiperazin-1-yl)ethoxy)quinazolin-6-yl)azetidin-1-yl)prop-2-en-1-one], the EC50 in assay [1], in assay [2], in assay [3], in assay [4], in assay [5] and in assay [6] was at most 0.2 µM each time.

As for `C=CC(=O)N1CC(c2cc3c(Nc4ccc(Cl)c(Cl)c4F)ncnc3cc2O[C@H]2CCOC2)C1` [Compound 22, (S)-1-(3-(4-((3,4-dichloro-2-fluorophenyl)amino)-7-((tetrahydrofuran-3-yl)oxy)quinazolin-6-yl)azetidin-1-yl)prop-2-en-1-one], the half-maximal effective concentration (EC50) is over 1 µM in assay [1]; over 1 µM in assay [2]; over 1 µM in assay [3]; over 1 µM in assay [4]; 0.2 to 1 µM in assay [5]; over 1 µM in assay [6].

As to `C=CC(=O)N1CC(c2cc3c(Nc4ccc(Cl)c(Cl)c4F)ncnc3cc2OC(F)F)C1` [Compound 23, 1-(3-(4-((3,4-dichloro-2-fluorophenyl)amino)-7-(difluoromethoxy)quinazolin-6-yl)azetidin-1-yl)prop-2-en-1-one], the EC50 was at most 0.2 µM in assay [1]; at most 0.2 µM in assay [2]; 0.2 to 1 µM in assay [3]; at most 0.2 µM in assay [4]; at most 0.2 µM in assay [5]; at most 0.2 µM in assay [6].

Turning to `C=CC(=O)N1CC(c2cc3c(Nc4ccc(Cl)c(Cl)c4F)ncnc3cc2OC2COC2)C1` [Compound 25, 1-(3-(4-((3,4-dichloro-2-fluorophenyl)amino)-7-(oxetan-3-yloxy)quinazolin-6-yl)azetidin-1-yl)prop-2-en-1-one], the EC50 in assay [1], in assay [2], in assay [3], in assay [4], in assay [5] and in assay [6] was at most 0.2 µM throughout.

Regarding `C=CC(=O)N1CC(c2cc3c(Nc4ccc(Cl)c(Cl)c4F)ncnc3cc2OCCN(C)C)C1` [Compound 26, 1-(3-(4-((3,4-dichloro-2-fluorophenyl)amino)-7-(2-(dimethylamino)ethoxy)quinazolin-6-yl)azetidin-1-yl)prop-2-en-1-one], the EC50 is 0.2 to 1 µM in assay [1]; at most 0.2 µM in assay [2]; 0.2 to 1 µM in assay [3]; 0.2 to 1 µM in assay [4]; at most 0.2 µM in assay [5]; 0.2 to 1 µM in assay [6].

Take `C=CC(=O)N1CC(c2cc3c(Nc4ccc(Cl)c(Cl)c4F)ncnc3cc2OC2CCOCC2)C1` [Compound 27, 1-(3-(4-((3,4-dichloro-2-fluorophenyl)amino)-7-((tetrahydro-2H-pyran-4-yl)oxy)quinazolin-6-yl)azetidin-1-yl)prop-2-en-1-one]: the EC50 in assay [1] is at most 0.2 µM; in assay [2], at most 0.2 µM; in assay [3], over 1 µM; in assay [4], 0.2 to 1 µM; in assay [5], at most 0.2 µM; in assay [6], 0.2 to 1 µM.

Turning to `C=CC(=O)N1CC(c2cc3c(Nc4ccc(Cl)c(Cl)c4F)ncnc3cc2OCCN2CCOCC2)C1` [Compound 28, 1-(3-(4-((3,4-dichloro-2-fluorophenyl)amino)-7-(2-morpholinoethoxy)quinazolin-6-yl)azetidin-1-yl)prop-2-en-1-one], the concentration for a half-maximal effect (EC50) in assay [1] was at most 0.2 µM; in assay [2], at most 0.2 µM; in assay [3], 0.2 to 1 µM; in assay [4], 0.2 to 1 µM; in assay [5] it was at most 0.2 µM; in assay [6], 0.2 to 1 µM.

Turning to `C=CC(=O)N1CC(c2cc3c(Nc4ccc(Cl)c(Cl)c4F)ncnc3cc2O[C@@H]2CCOC2)C1` [Compound 29, (R)-1-(3-(4-((3,4-dichloro-2-fluorophenyl)amino)-7-((tetrahydrofuran-3-yl)oxy)quinazolin-6-yl)azetidin-1-yl)prop-2-en-1-one], the EC50 in assay [1] is at most 0.2 µM; in assay [2], at most 0.2 µM; in assay [3], 0.2 to 1 µM; in assay [4], 0.2 to 1 µM; in assay [5] it was at most 0.2 µM; in assay [6], at most 0.2 µM.

`C=CC(=O)N1CC(c2cc3c(Nc4ccc(Cl)c(Cl)c4F)ncnc3cc2OCCCN2CCOCC2)C1` [Compound 30, 1-(3-(4-((3,4-dichloro-2-fluorophenyl)amino)-7-(3-morpholinopropoxy)quinazolin-6-yl)azetidin-1-yl)prop-2-en-1-one]: the EC50 in assay [1], in assay [2], in assay [3], in assay [4], in assay [5] and in assay [6] was at most 0.2 µM in each case.

For the compound `C=CC(=O)N1CC(c2cc3c(Nc4ccc(Cl)c(Cl)c4F)ncnc3cc2OCCCN2CCN(C)CC2)C1` [Compound 31, 1-(3-(4-((3,4-dichloro-2-fluorophenyl)amino)-7-(3-(4-methylpiperazin-1-yl)propoxy)quinazolin-6-yl)azetidin-1-yl)prop-2-en-1-one], the EC50 in assay [1] was at most 0.2 µM; in assay [2], at most 0.2 µM; in assay [3] it was 0.2 to 1 µM; in assay [4] it was at most 0.2 µM; in assay [5], at most 0.2 µM; in assay [6] it was at most 0.2 µM.

On to `[2H]C([2H])([2H])Oc1cc2ncnc(Nc3ccc(Cl)c(Cl)c3F)c2cc1C1CN(C(=O)C=C)C1` [Compound 32, 1-(3-(4-((3,4-dichloro-2-fluorophenyl)amino)-7-(methoxy-d3)quinazolin-6-yl)azetidin-1-yl)prop-2-en-1-one], for which the EC50 in assay [1], in assay [2], in assay [3], in assay [4], in assay [5] and in assay [6] was at most 0.2 µM each time.

In general, EC50 refers to the midpoint of the concentration-response curve.
